How the values were obtained:
[1] = molecular target: T1, EGFR L858R/T790M/C797S kinase domain (Homo sapiens, UniProt P00533, C797S/L858R/T790M); experiment: HTRF-based activity assay; assay type: biochemical; conditions: 100 μM ATP, enzyme 0.02 nM, read-out: Biochemical EGFR IC50, LRTMCS
T1 construct: The EGFR kinase domain (residues 696-1022) was cloned into pTriEx; 6xHis (N, cleaved yes); GST (N, cleaved yes); made in house; host or cells: SF9 insect cells (baculovirus)
Procedure: Protein expression and purification. The EGFR kinase domain (residues 696-1022) was cloned into pTriEx with an N-terminal 6×His-glutathione S-transferase (GST) fusion tag followed by a TEV protease cleavage site. EGFR WT, L858R, L858R/T790M, L858R/T790M/C797S was expressed after baculoviral infection in SF9 cells and EGFR(T790M/V948R) was expressed in SF21 cells. Briefly, cells were pelleted and resuspended in lysis buffer composed of 50 mM Tris pH 8.0, 500 mM NaCl, 1 mM tris(2-carboxyethyl)phosphine (TCEP), and 5% glycerol. Cells were lysed via sonication prior to ultracentrifugation at >200,000 g for 1 h. Imidazole pH 8.0 was added to the supernatant for a final concentration of 40 mM and flowed through a column containing Ni-NTA agarose beads. The resin was washed with lysis buffer supplemented with 40 mM imidazole and eluted with lysis buffer containing 200 mM imidazole. Eluted EGFR kinase domain was dialyzed overnight in the presence of 5% (w/w) TEV protease against dialysis buffer containing 50 mM Tris pH 8.0, 500 mM NaCl, 1 mM TCEP, and 5% glycerol. The cleaved protein was passed through Ni-NTA resin to remove the 6×His-GST fusion protein and TEV prior to size exclusion chromatography on a prep-grade Superdex S200 column in 50 mM Tris pH 8.0, 500 mM NaCl, 1 mM TCEP, and 5% glycerol.
HTRF Assays. Biochemical assays for EGFR domains were carried out using a homogeneous time-resolved fluorescence (HTRF) KinEASE-TK (Cisbio) assay, as described previously. Assays were optimized for ATP concentration of 100 μM with enzyme concentrations WT EGFR 10 nM, L858R 0.1 nM, L858R/T790M at 0.02 nM and L858R/T790M/C797S at 0.02 nM. Inhibitor compounds in DMSO were dispensed directly in 384-well plates with the D300 digital dispenser (Hewlett Packard) followed immediately by the addition of aqueous buffered solutions using the Multidrop Combi Reagent Dispenser (Thermo Fischer). […] The curves were fitted using a non-linear regression model with a sigmoidal dose response.

ABL2 = molecular target: T2, ABL2 (Homo sapiens, UniProt P42684); experiment: KINOMEscan; assay type: binding; conditions: 1 μM of compound 4; read-out: POC
T2 construct: purchased Eurofins DiscoverX Corporation

ALK = ALK (Homo sapiens, UniProt Q9UM73); experiment: KINOMEscan; assay type: binding; conditions: 1 μM of compound 4; read-out: POC
CDK11 = CDK11 (Homo sapiens, UniProt Q9BWU1); experiment: KINOMEscan; assay type: binding; conditions: 1 μM of compound 4; read-out: POC
DAPK3 = DAPK3 (Homo sapiens, UniProt O43293); experiment: KINOMEscan; assay type: binding; conditions: 1 μM of compound 4; read-out: POC
DLK = DLK (Homo sapiens, UniProt Q12852); experiment: KINOMEscan; assay type: binding; conditions: 1 μM of compound 4; read-out: POC
EGFR(L858R + T790M) = molecular target: T3, EGFR(L858R + T790M) (Homo sapiens, UniProt P00533, L858R/T790M); experiment: KINOMEscan; assay type: binding; conditions: 1 μM of compound 4; read-out: POC
T3 construct: purchased Eurofins DiscoverX (KINOMEscan service)

EPHB1 = molecular target: T4, EPHB1 (Homo sapiens, UniProt P54762); experiment: KINOMEscan; assay type: binding; conditions: 1 μM of compound 4; read-out: POC
T4 construct: purchased Eurofins DiscoverX (KINOMEscan service)

ERK1 = molecular target: T5, ERK1 (Homo sapiens, UniProt P27361); experiment: KINOMEscan; assay type: binding; conditions: 1 μM of compound 4; read-out: POC
T5 construct: purchased Eurofins DiscoverX Corporation

ERK8 = molecular target: T6, ERK8 (Homo sapiens, UniProt Q8TD08); experiment: KINOMEscan; assay type: binding; conditions: 1 μM of compound 4; read-out: POC
T6 construct: purchased Eurofins DiscoverX Corporation

MARK3 = MARK3 (Homo sapiens, UniProt P27448); experiment: KINOMEscan; assay type: binding; conditions: 1 μM of compound 4; read-out: POC
MKK7 = MKK7 (Homo sapiens, UniProt O14733); experiment: KINOMEscan; assay type: binding; conditions: 1 μM of compound 4; read-out: POC
MRCKA = MRCKA (Homo sapiens, UniProt Q5VT25); experiment: KINOMEscan; assay type: binding; conditions: 1 μM of compound 4; read-out: POC
MYO3B = MYO3B (Homo sapiens, UniProt Q8WXR4); experiment: KINOMEscan; assay type: binding; conditions: 1 μM of compound 4; read-out: POC
NDR2 = NDR2 (Homo sapiens, UniProt Q9Y2H1); experiment: KINOMEscan; assay type: binding; conditions: 1 μM of compound 4; read-out: POC
p38-beta = molecular target: T7, p38-beta (Homo sapiens, UniProt Q15759); experiment: KINOMEscan; assay type: binding; conditions: 1 μM of compound 4; read-out: POC
T7 construct: purchased Eurofins DiscoverX Corporation (KINOMEscan)

PAK7 = molecular target: T8, PAK7 (Homo sapiens, UniProt Q9P286); experiment: KINOMEscan; assay type: binding; conditions: 1 μM of compound 4; read-out: POC
T8 construct: purchased Eurofins DiscoverX Corporation (KINOMEscan)

PCTK1 = molecular target: T9, PCTK1 (Homo sapiens, UniProt Q00536); experiment: KINOMEscan; assay type: binding; conditions: 1 μM of compound 4; read-out: POC
T9 construct: purchased Eurofins DiscoverX Corporation (KINOMEscan)

PIK3C2B = PIK3C2B (Homo sapiens, UniProt O00750); experiment: KINOMEscan; assay type: binding; conditions: 1 μM of compound 4; read-out: POC
PRKCE = PRKCE (Homo sapiens, UniProt Q02156); experiment: KINOMEscan; assay type: binding; conditions: 1 μM of compound 4; read-out: POC
RET = molecular target: T10, RET (Homo sapiens, UniProt P07949); experiment: KINOMEscan; assay type: binding; conditions: 1 μM of compound 4; read-out: POC
T10 construct: purchased Eurofins DiscoverX Corporation (KINOMEscan screening service)

ROCK1 = molecular target: T11, ROCK1 (Homo sapiens, UniProt Q13464); experiment: KINOMEscan; assay type: binding; conditions: 1 μM of compound 4; read-out: POC
T11 construct: purchased Eurofins DiscoverX Corporation (KINOMEscan screening service)

STK39 = molecular target: T12, STK39 (Homo sapiens, UniProt Q9UEW8); experiment: KINOMEscan; assay type: binding; conditions: 1 μM of compound 4; read-out: POC
T12 construct: purchased Eurofins DiscoverX (KINOMEscan service)

TIE1 = molecular target: T13, TIE1 (Homo sapiens, UniProt P35590); experiment: KINOMEscan; assay type: binding; conditions: 1 μM of compound 4; read-out: POC
T13 construct: purchased Eurofins DiscoverX Corporation

TLK2 = molecular target: T14, TLK2 (Homo sapiens, UniProt Q86UE8); experiment: KINOMEscan; assay type: binding; conditions: 1 μM of compound 4; read-out: POC
T14 construct: purchased Eurofins DiscoverX Corporation

YES = molecular target: T15, YES (Homo sapiens, UniProt P07947); experiment: KINOMEscan; assay type: binding; conditions: 1 μM of compound 4; read-out: POC
T15 construct: purchased Eurofins DiscoverX

NDR2, sequence (Q9Y2H1 whole entry): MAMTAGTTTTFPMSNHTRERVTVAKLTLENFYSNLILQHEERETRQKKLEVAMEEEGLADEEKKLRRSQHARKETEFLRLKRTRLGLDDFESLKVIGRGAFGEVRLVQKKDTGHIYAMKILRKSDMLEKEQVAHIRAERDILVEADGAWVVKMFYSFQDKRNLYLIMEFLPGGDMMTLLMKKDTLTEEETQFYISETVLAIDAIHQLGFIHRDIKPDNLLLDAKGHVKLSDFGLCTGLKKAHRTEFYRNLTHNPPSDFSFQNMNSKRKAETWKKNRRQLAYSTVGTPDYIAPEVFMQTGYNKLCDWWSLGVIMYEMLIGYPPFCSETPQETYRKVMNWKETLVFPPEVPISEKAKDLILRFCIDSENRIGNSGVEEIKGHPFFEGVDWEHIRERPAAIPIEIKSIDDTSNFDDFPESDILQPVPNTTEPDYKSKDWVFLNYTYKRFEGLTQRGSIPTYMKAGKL
T1 sequence (P00533 696-1022 T790M/C797S/L858R): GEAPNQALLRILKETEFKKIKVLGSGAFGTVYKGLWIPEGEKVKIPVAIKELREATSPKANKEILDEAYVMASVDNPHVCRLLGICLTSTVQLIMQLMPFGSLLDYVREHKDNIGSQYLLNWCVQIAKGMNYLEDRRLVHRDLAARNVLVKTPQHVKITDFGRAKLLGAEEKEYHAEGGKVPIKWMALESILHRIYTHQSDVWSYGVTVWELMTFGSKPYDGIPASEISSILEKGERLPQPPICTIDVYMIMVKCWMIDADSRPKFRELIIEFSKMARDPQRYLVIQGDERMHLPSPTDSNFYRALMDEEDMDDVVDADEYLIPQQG
PIK3C2B, sequence (O00750 whole entry): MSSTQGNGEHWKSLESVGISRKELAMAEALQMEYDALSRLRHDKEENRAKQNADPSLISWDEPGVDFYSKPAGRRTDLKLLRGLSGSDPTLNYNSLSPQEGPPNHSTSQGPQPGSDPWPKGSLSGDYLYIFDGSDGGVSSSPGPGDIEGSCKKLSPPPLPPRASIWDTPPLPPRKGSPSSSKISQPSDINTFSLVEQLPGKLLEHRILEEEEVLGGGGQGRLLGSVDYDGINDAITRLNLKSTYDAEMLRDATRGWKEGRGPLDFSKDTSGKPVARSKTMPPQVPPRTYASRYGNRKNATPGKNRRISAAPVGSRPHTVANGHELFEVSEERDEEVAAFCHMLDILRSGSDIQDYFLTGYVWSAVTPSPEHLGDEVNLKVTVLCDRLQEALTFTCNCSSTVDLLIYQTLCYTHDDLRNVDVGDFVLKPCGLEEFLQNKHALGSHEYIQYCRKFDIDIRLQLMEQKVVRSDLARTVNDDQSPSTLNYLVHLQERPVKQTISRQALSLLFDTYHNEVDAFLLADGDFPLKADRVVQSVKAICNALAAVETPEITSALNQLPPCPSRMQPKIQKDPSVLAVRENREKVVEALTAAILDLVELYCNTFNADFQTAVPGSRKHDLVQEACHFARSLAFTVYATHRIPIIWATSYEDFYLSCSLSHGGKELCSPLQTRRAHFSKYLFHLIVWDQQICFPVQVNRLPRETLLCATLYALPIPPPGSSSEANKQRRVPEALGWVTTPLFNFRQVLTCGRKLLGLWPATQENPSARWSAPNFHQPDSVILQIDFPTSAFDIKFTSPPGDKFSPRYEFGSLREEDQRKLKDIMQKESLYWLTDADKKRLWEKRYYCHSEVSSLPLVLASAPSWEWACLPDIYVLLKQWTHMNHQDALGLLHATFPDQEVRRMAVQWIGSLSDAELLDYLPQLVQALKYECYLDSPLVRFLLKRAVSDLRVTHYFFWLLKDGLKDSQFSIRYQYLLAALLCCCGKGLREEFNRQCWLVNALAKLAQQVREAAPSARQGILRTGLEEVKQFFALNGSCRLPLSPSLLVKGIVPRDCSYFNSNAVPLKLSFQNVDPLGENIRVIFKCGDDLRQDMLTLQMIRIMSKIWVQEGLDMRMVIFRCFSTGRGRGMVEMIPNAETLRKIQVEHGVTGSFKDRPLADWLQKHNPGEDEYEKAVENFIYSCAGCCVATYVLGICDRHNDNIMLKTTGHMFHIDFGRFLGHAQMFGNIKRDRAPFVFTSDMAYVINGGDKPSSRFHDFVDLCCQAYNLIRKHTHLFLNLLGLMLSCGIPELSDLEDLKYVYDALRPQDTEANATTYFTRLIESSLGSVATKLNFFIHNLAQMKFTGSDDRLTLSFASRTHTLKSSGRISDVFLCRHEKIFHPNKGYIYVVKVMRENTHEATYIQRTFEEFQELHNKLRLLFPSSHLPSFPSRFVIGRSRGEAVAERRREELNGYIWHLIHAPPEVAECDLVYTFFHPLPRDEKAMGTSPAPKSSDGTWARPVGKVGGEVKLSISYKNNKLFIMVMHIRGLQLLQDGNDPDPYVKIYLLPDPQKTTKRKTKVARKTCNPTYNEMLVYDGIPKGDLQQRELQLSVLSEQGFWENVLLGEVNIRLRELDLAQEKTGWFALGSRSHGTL
T14 sequence (Q86UE8 whole entry): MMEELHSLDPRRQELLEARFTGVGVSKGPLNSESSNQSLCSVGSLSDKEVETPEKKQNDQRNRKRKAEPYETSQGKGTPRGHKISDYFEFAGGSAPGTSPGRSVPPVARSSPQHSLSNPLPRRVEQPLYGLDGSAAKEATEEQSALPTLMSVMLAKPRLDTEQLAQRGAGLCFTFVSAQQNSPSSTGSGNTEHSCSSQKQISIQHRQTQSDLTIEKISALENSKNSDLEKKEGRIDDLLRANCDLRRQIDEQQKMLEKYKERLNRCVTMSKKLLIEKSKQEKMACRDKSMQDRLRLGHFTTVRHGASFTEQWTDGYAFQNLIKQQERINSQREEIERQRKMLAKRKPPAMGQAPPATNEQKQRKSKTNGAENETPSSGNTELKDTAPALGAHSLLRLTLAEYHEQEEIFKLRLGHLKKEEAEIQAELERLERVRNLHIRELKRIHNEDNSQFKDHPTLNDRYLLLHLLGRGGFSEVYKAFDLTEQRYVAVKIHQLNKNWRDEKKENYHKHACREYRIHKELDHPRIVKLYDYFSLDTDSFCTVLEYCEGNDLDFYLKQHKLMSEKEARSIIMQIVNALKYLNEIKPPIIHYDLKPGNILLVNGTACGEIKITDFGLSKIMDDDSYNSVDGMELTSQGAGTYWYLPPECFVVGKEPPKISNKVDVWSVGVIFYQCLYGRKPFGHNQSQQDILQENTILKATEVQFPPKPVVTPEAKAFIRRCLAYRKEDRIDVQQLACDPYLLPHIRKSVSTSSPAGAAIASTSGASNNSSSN
T9 sequence (Q00536 whole entry): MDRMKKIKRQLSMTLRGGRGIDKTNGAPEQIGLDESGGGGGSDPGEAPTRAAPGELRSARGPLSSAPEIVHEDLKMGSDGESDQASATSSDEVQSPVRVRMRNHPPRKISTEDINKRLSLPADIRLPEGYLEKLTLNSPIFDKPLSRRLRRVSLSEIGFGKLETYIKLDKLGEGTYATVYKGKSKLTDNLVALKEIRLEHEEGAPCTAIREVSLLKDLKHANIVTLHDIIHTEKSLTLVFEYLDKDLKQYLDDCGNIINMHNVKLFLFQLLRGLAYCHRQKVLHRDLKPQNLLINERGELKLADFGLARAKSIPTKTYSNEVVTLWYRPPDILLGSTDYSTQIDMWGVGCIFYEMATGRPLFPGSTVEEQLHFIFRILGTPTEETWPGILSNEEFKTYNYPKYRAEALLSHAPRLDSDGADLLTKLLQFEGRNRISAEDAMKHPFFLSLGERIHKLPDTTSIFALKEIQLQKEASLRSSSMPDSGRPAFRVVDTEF
T11 sequence (Q13464 whole entry): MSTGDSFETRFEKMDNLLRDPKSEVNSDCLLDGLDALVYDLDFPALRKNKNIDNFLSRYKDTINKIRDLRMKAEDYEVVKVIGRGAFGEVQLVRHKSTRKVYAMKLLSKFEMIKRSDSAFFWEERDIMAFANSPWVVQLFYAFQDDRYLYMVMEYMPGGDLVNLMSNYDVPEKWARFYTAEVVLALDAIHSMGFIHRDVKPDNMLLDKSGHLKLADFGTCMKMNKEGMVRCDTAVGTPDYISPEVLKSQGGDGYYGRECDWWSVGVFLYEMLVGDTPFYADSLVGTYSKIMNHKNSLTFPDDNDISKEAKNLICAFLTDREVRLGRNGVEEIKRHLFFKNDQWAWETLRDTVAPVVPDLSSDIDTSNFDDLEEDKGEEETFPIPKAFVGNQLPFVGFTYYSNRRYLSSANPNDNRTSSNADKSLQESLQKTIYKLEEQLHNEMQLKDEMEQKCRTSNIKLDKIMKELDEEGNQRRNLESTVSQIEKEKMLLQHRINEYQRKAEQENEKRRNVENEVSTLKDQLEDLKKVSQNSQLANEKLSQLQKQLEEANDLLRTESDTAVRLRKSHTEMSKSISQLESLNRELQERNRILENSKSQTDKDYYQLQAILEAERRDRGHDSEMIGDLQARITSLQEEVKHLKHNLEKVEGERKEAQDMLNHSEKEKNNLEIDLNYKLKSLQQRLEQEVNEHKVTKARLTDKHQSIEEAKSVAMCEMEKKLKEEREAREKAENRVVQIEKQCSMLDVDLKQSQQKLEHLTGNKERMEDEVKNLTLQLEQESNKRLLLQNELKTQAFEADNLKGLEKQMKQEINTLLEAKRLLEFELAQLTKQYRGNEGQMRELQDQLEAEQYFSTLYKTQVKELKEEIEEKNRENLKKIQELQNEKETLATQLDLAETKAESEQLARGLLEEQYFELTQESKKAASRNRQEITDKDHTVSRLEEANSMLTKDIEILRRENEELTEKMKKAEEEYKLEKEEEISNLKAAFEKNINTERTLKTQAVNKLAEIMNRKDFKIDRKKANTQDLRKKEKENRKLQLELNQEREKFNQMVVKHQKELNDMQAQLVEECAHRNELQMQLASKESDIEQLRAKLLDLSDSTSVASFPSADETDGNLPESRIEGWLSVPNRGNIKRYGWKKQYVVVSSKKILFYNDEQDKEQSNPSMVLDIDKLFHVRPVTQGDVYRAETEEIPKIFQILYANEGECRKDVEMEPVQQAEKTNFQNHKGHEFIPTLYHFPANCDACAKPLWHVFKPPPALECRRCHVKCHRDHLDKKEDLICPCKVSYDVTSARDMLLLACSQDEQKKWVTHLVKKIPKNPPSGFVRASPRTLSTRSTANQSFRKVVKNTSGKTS

SMILES: C=CC(=O)Nc1ccc(OC)c(Nc2cc(-c3[nH]c(CC)nc3-c3cccc(NC(=O)c4cccc5c4NC(=O)c4ccccc4N5)c3)ccn2)c1 [Compound 4, N-(3-(5-(2-((5-Acrylamido-2-methoxyphenyl)amino)pyridin-4-yl)-2-ethyl-1H-imidazol-4-yl)phenyl)-11-oxo-10,11-dihydro-5H-dibenzo[b,e][1,4]diazepine-9-carboxamide]
- IC50 [1]: 1.8 ± 0.3 nM
- remaining binding at 1 µM (ABL2): 92%
- remaining binding at 1 µM (ALK): 100%
- remaining binding at 1 µM (CDK11): 100%
- remaining binding at 1 µM (DAPK3): 62%
- remaining binding at 1 µM (DLK): 100%
- remaining binding at 1 µM (EGFR(L858R + T790M)): 8.3%
- remaining binding at 1 µM (EPHB1): 92%
- remaining binding at 1 µM (ERK1): 99%
- remaining binding at 1 µM (ERK8): 100%
- remaining binding at 1 µM (MARK3): 100%
- remaining binding at 1 µM (MKK7): 31%
- remaining binding at 1 µM (MRCKA): 0%
- remaining binding at 1 µM (MYO3B): 31%
- remaining binding at 1 µM (NDR2): 77%
- remaining binding at 1 µM (p38-beta): 59%
- remaining binding at 1 µM (PAK7): 77%
- remaining binding at 1 µM (PCTK1): 100%
- remaining binding at 1 µM (PIK3C2B): 74%
- remaining binding at 1 µM (PRKCE): 100%
- remaining binding at 1 µM (RET): 99%
- remaining binding at 1 µM (ROCK1): 100%
- remaining binding at 1 µM (STK39): 85%
- remaining binding at 1 µM (TIE1): 100%
- remaining binding at 1 µM (TLK2): 87%
- remaining binding at 1 µM (YES): 20%

From patent US20260224588A1, “BENZODIAZEPINONE-DERIVED INHIBITORS OF EGFR AND HER2” (The Research Foundation for the State University of New York, priority 2023, published 2026)
